{
  "source": "patent US11400106B2",
  "about": "“Methods for inhibiting microbe growth” (priority 2018, dated 2022)",
  "key": {"E. coli": {"test_system": "E. coli", "assay": "microbe, parasite or virus in culture", "type": "cell-based, Escherichia coli", "conditions": "for MIC: Escherichia coli, 18 h, read-out: MIC, E. coli, MHB−", "description": "(§1) In the following experiments, bacterial cells were cultured in 96-well microtiter plates in cation-adjusted Mueller-Hinton Broth (MHB) for 18 h at 37° C. The main strains used were E. coli (K-12 BW25113) (placed in stationary incubator) and S. aureus (Newman Strain) (incubated at 250 r.p.m). Knockout strains (ΔtolcC and ΔychM) were used from the Keio knockout collection (Baba et al., Construction of Escherichia coli K-12 in-frame, single-gene knockout mutants: the Keio collection. Mol Syst Biol 2, 2006 0008, doi:10.1038/msb4100050 (2006)). For MIC determination and checkerboard analyses, Clinical & Laboratory Standards Institute (CLSI) protocol was used. […] DiSC3 loading of S. aureus cells was performed as previously described (Farha et al., Collapsing the proton motive force to identify synergistic combinations against Staphylococcus aureus. Chemistry & biology 20, 1168-1178, doi:10.1016/j.chembiol.2013.07.006 (2013)). CCCP concentration of 20 μM was used. pH adjustments were made by addition of HCl or NaOH. INT assay and ATP bioluminescence assays were performed as previously described (Farha et al., Collapsing the proton motive force to identify synergistic combinations against Staphylococcus aureus. Chemistry & biology 20, 1168-1178, doi:10.1016/j.chembiol.2013.07.006 (2013)). For chemical-genomic studies, the Keio library was grown overnight in cation-adjusted MHB broth, in 384-well plates. From these, treatment plates (25 mM sodium bicarbonate, or a sterile water control) were inoculated and grown for 15 hours at 37° C., in a stationary incubator. Data was normalized according to Mangat et al (Mangat et al., Rank ordering plate data facilitates data visualization and normalization in high-throughput screening. J Biomol Screen 19, 1314-1320, doi:10.1177/1087057114534298 (2014)), with gene products and GO terms mined from EcoCyc. The GFP promoter library (Keseler et al., EcoCyc: fusing model organism databases with systems biology. Nucleic Acids Res 41, D605-612, doi:10.1093/nar/gks1027 (2013)) was grown for 18 hours at ambient temperature with the same inoculation strategy as with the Keio collection. The analysis pipeline of Zaslaver et al (Zaslaver et al., A comprehensive library of fluorescent transcriptional reporters for Escherichia coli. Nat Methods 3, 623-628, doi:10.1038/nmeth895 (2006)) was used to generate maps of promoter activity, from which lists of promoters with increased or decreased activity were compiled.\n(§2) Fold enhancement in MICs in the media supplemented with sodium bicarbonate is represented by a positive fold, whereas suppression of activity is represented by a negative fold.\n(§3) The effect of sodium bicarbonate on the activity of additional antibacterial agents was investigated. Clinical isolates of various bacteria were obtained from the ATCC and the IHMA.\n(§4) The effect of sodium bicarbonate on the activity of cationic antiseptic agents was investigated. Clinical isolates of various bacteria were obtained from the ATCC and the IHMA."}, "S. aureus": {"test_system": "S. aureus", "assay": "microbe, parasite or virus in culture", "conditions": "for Fold, S. aureus: fold shift in MIC; for MIC: Staphylococcus aureus, 18 h, read-out: MIC, S. aureus, MHB−", "description": "as §1, §2, §3, §4"}, "[1]": {"conditions": "antibiotic agents, MHB in the absence of sodium bicarbonate"}, "[2]": {"conditions": "antibiotic agents, MHB in the presence of 25 mM sodium bicarbonate"}, "[3]": {"conditions": "antibiotic agents, fold shift in MIC, MHB− vs MHB+"}, "[4]": {"conditions": "antibiotic agents, MHB− vs MHB+"}, "[5]": {"conditions": "MHB in the absence of sodium bicarbonate"}},
  "note": "Read-outs that look alike come from different tables or passages of the source.",
  "data": [
    {"compound": "O=C(O)c1ccc(O)cc1", "note": "[p-hydroxybenzoate]", "values": [
      {"measurement": "Fold, E. coli", "setting": "E. coli", "value": 1},
      {"measurement": "MIC, E. coli, MHB", "setting": "E. coli", "value": "64 μg of antimicrobial agent/mL of buffer"},
      {"measurement": "MIC, E. coli, MHB+", "setting": "E. coli", "value": "64 μg of antimicrobial agent/mL of buffer"},
      {"measurement": "MIC, S. aureus, MHB", "setting": "S. aureus; antiseptic agents, MHB in the absence of sodium bicarbonate", "value": "16 μg of antimicrobial agent/mL of buffer"},
      {"measurement": "MIC, S. aureus, MHB+", "setting": "S. aureus; antiseptic agents, MHB in the presence of 25 mM sodium bicarbonate", "value": "16 μg of antimicrobial agent/mL of buffer"},
      {"measurement": "Fold, S. aureus", "setting": "S. aureus; antiseptic agents", "value": 1}
    ]},
    {"compound": "CC1(C)S[C@@H]2[C@H](NC(=O)[C@H](N)c3ccc(O)cc3)C(=O)N2[C@H]1C(=O)O", "note": "[Amoxicillin]", "values": [
      {"measurement": "MIC", "setting": "E. coli", "value": 8, "unit": "µg/mL"},
      {"measurement": "MIC, S. aureus, MHB+", "setting": "S. aureus", "value": 1},
      {"measurement": "MIC", "setting": "S. aureus", "value": 0.25, "unit": "µg/mL"}
    ]},
    {"compound": "NC(=O)c1ccccc1", "note": "[Benzamide]", "values": [
      {"measurement": "MIC, E. coli, MHB+", "setting": "E. coli", "value": ">128 μg of antimicrobial agent/mL of buffer"},
      {"measurement": "MIC", "setting": "E. coli; [1]", "value": "> 128", "unit": "µg/mL"},
      {"measurement": "MIC, S. aureus, MHB+", "setting": "S. aureus", "value": ">128 μg of antimicrobial agent/mL of buffer"},
      {"measurement": "MIC", "setting": "S. aureus", "value": "> 128", "unit": "µg/mL"}
    ]},
    {"compound": "Gramicidin", "values": [
      {"measurement": "MIC, E. coli, MHB−", "setting": "E. coli; [1]", "value": ">128 μg of antimicrobial agent/mL of buffer"},
      {"measurement": "MIC, E. coli, MHB+", "setting": "E. coli; [2]", "value": ">128 μg of antimicrobial agent/mL of buffer"},
      {"measurement": "Fold, E. coli", "setting": "E. coli; [3]", "value": 1},
      {"measurement": "MIC, S. aureus, MHB−", "setting": "S. aureus; [1]", "value": "1 μg of antimicrobial agent/mL of buffer"},
      {"measurement": "MIC, S. aureus, MHB+", "setting": "S. aureus; [2]", "value": "0.25 μg of antimicrobial agent/mL of buffer"},
      {"measurement": "Fold, S. aureus", "setting": "S. aureus; [4]", "value": 4}
    ]},
    {"compound": "CO/N=C(\\C(=O)N[C@@H]1C(=O)N2C(C(=O)O)=C(CSc3nc(=O)c(=O)[nH]n3C)CS[C@H]12)c1csc(N)n1", "note": "[Ceftriaxone]", "values": [
      {"measurement": "MIC", "setting": "E. coli; [5]", "value": 0.625, "unit": "µg/mL"},
      {"measurement": "MIC, S. aureus, MHB+", "setting": "S. aureus", "value": 16},
      {"measurement": "MIC", "setting": "S. aureus", "value": 4, "unit": "µg/mL"}
    ]},
    {"compound": "N[C@@H](C(=O)N[C@@H]1C(=O)N2C(C(=O)O)=C(Cl)CS[C@H]12)c1ccccc1", "note": "[Cefaclor]", "values": [
      {"measurement": "MIC, E. coli, MHB+", "setting": "E. coli", "value": "4 μg of antimicrobial agent/mL of buffer"},
      {"measurement": "MIC", "setting": "E. coli; [1]", "value": 4, "unit": "µg/mL"},
      {"measurement": "MIC, S. aureus, MHB+", "setting": "S. aureus", "value": "8 μg of antimicrobial agent/mL of buffer"},
      {"measurement": "MIC", "setting": "S. aureus", "value": 2, "unit": "µg/mL"}
    ]},
    {"compound": "CN[C@@H]1[C@@H](O[C@H]2O[C@H](CO)[C@@H](N)[C@H](O)[C@H]2O)OC2C[C@@H](N)[C@@H](O[C@H]3[C@H](O)[C@@H](O)[C@H](N)C[C@@H]3N)OC2[C@@H]1O", "note": "(stereo partly shown) [Apramycin]", "values": [
      {"measurement": "MIC", "setting": "E. coli; [5]", "value": 32, "unit": "µg/mL"},
      {"measurement": "MIC, S. aureus, MHB+", "setting": "S. aureus", "value": 32},
      {"measurement": "MIC", "setting": "S. aureus", "value": 16, "unit": "µg/mL"}
    ]},
    {"compound": "CN[C@H]1C[C@@H](N)[C@H](O)[C@@H](O[C@@H]2O[C@H](CO)[C@H](O)[C@@H]3OC4(O[C@H]23)O[C@H]([C@@H](N)CO)[C@H](O)[C@H](O)[C@H]4O)[C@@H]1O", "note": "(stereo partly shown) [Hygromycin B]", "values": [
      {"measurement": "MIC, E. coli, MHB+", "setting": "E. coli", "value": "16 μg of antimicrobial agent/mL of buffer"},
      {"measurement": "MIC, E. coli, MHB−", "setting": "E. coli; [1]", "value": "32 μg of antimicrobial agent/mL of buffer"},
      {"measurement": "Fold, E. coli", "setting": "E. coli; [3]", "value": 2},
      {"measurement": "MIC, S. aureus, MHB−", "setting": "S. aureus; [1]", "value": ">128 μg of antimicrobial agent/mL of buffer"},
      {"measurement": "MIC, S. aureus, MHB+", "setting": "S. aureus; [2]", "value": "64 μg of antimicrobial agent/mL of buffer"},
      {"measurement": "Fold, S. aureus", "setting": "S. aureus; [4]", "value": 2}
    ]},
    {"compound": "O=C(N[C@H](CO)[C@H](O)c1ccc([N+](=O)[O-])cc1)C(Cl)Cl", "note": "[Chloramphenicol]", "values": [
      {"measurement": "effect of 25 mM sodium bicarbonate on antibacterial activity", "setting": "E. coli", "value": "remained largely unchanged"},
      {"measurement": "MIC", "setting": "E. coli; [5]", "value": 8, "unit": "µg/mL"},
      {"measurement": "MIC, S. aureus, MHB+", "setting": "S. aureus", "value": 8},
      {"measurement": "effect of 25 mM sodium bicarbonate on antibacterial activity", "setting": "S. aureus; S. aureus, result in words", "value": "remained largely unchanged"},
      {"measurement": "MIC", "setting": "S. aureus", "value": 8, "unit": "µg/mL"}
    ]},
    {"compound": "Colistin", "values": [
      {"measurement": "MIC, E. coli, MHB+", "setting": "E. coli", "value": "0.5 μg of antimicrobial agent/mL of buffer"},
      {"measurement": "MIC, E. coli, MHB−", "setting": "E. coli; [1]", "value": "0.5 μg of antimicrobial agent/mL of buffer"},
      {"measurement": "Fold, E. coli", "setting": "E. coli; [3]", "value": 1},
      {"measurement": "MIC, S. aureus, MHB−", "setting": "S. aureus; [1]", "value": ">128 μg of antimicrobial agent/mL of buffer"},
      {"measurement": "MIC, S. aureus, MHB+", "setting": "S. aureus; [2]", "value": ">128 μg of antimicrobial agent/mL of buffer"},
      {"measurement": "Fold, S. aureus", "setting": "S. aureus; [4]", "value": 1}
    ]},
    {"compound": "C[C@H]1c2cccc(O)c2C(=O)C2=C(O)[C@]3(O)C(=O)C(C(N)=O)=C(O)[C@@H](N(C)C)[C@@H]3[C@@H](O)[C@@H]21", "note": "[Doxycycline]", "values": [
      {"measurement": "MIC", "setting": "E. coli; [5]", "value": 1, "unit": "µg/mL"},
      {"measurement": "MIC, S. aureus, MHB+", "setting": "S. aureus", "value": 2},
      {"measurement": "MIC", "setting": "S. aureus", "value": 0.125, "unit": "µg/mL"}
    ]}
  ]
}
